# ChEMBL document CHEMBL1201862, “PubChem BioAssay data set” (2004)
#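 Each compound was tested at five concentrations against cells in 96-well plates for 48 hours. GI50 marks 50% less growth.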 Activity calls are given as the source filed them. Rule as the data show it: active = GI50 up to about 1.1 µM and inactive = higher. Where a SMILES comes first, the peptide text is derived from it. The star is where a group is joined. Cbz = O=C(OCc1ccccc1)*; Bn = c1ccc(C*)cc1
# Tests used:
# Experiment in all cases: NCI tumour cell line growth inhibition, 48 h
# A549 = system: A549
# CCRF-CEM = system: CCRF-CEM
# COLO 205 = system: COLO 205
# HCC 2998 = system: HCC 2998
# HCT-15 = system: HCT-15
# HL-60 = system: HL-60
# HT-29 = system: HT-29
# KM12 = system: KM12
# LOX IMVI = system: LOX IMVI
# M14 = system: M14
# MCF7 = system: MCF7
# MDA-MB-435 = system: MDA-MB-435
# NCI-H226 = system: NCI-H226
# NCI-H522 = system: NCI-H522
# OVCAR-3 = system: OVCAR-3
# RXF 393 = system: RXF 393
# SF-539 = system: SF-539
# SK-MEL-2 = system: SK-MEL-2
# SNB-75 = system: SNB-75
# UACC-62 = system: UACC-62
SMILES,GI50 (A549),GI50 (CCRF-CEM),GI50 (COLO 205),GI50 (HCC 2998),GI50 (HCT-15) [µM],GI50 (HL-60),GI50 (HT-29),GI50 (KM12),GI50 (LOX IMVI),GI50 (M14),GI50 (MCF7),GI50 (MDA-MB-435),GI50 (NCI-H226),GI50 (NCI-H522),GI50 (OVCAR-3),GI50 (RXF 393),GI50 (SF-539),GI50 (SK-MEL-2),GI50 (SNB-75),GI50 (UACC-62)
COc1ccc2c(c1)CCC(CN1CCN(CCOC(c3ccccc3)c3ccccc3)CC1)C2O (stereo not drawn),18.2 µM (inactive),16.3 µM (inactive),12.6 µM (inactive),4.28 µM (inactive),10.8,2.81 µM (inactive),5.04 µM (inactive),18.3 µM (inactive),17.3 µM (inactive),14.2 µM (inactive),18.9 µM (inactive),16.6 µM (inactive),16.3 µM (inactive),16.6 µM (inactive),15.3 µM (inactive),14.1 µM (inactive),11.3 µM (inactive),17.5 µM (inactive),17.9 µM (inactive),13.5 µM (inactive)
O=P(O)(O)CN1CCN(CP(=O)(O)O)CCN(CP(=O)(O)O)CCN(CP(=O)(O)O)CC1,58.5 µM (inactive),44.9 µM (inactive),32.4 µM (inactive),88.7 µM (inactive),27.8,25.4 µM (inactive),69 µM (inactive),41.8 µM (inactive),> 100 µM (inactive),> 100 µM (inactive),53.6 µM (inactive),> 100 µM (inactive),> 100 µM (inactive),90.4 µM (inactive),> 100 µM (inactive),47.4 µM (inactive),70.5 µM (inactive),32.8 µM (inactive),> 100 µM (inactive),46 µM (inactive)
CC(C)(C)c1cc(C(=O)/C=C/c2ccc(C(=O)O)cc2)cc(C(C)(C)C)c1,2.07 µM (inactive),2.91 µM (inactive),2.12 µM (inactive),1.82 µM (inactive),1.91,3.51 µM (inactive),3.05 µM (inactive),2.4 µM (inactive),3.2 µM (inactive),1.5 µM (inactive),3.87 µM (inactive),2.16 µM (inactive),1.53 µM (inactive),4.34 µM (inactive),2.35 µM (inactive),1.5 µM (inactive),1.36 µM (inactive),2.94 µM (inactive),0.885 µM (active),1.77 µM (inactive)
COc1ccc2cc(/C=N\NC(=O)Nc3cccc4ccccc34)ccc2c1,> 100 µM (inactive),21.3 µM (inactive),46.7 µM (inactive),> 100 µM (inactive),67.5,> 10 µM (inactive),39.2 µM (inactive),67 µM (inactive),33.9 µM (inactive),33.4 µM (inactive),20.3 µM (inactive),50.6 µM (inactive),28.2 µM (inactive),80 µM (inactive),–,38.5 µM (inactive),30.5 µM (inactive),25.7 µM (inactive),11.1 µM (inactive),–
CCCCOC(=O)NC(Nc1ccc(S(N)(=O)=O)cc1)(C(F)(F)F)C(F)(F)F,–,> 100 µM (inactive),–,> 100 µM (inactive),> 100,> 100 µM (inactive),> 100 µM (inactive),> 100 µM (inactive),> 100 µM (inactive),> 100 µM (inactive),> 100 µM (inactive),> 100 µM (inactive),> 100 µM (inactive),> 100 µM (inactive),> 100 µM (inactive),> 100 µM (inactive),> 100 µM (inactive),> 100 µM (inactive),> 100 µM (inactive),> 100 µM (inactive)
OC1CSCCSCCCSCCSC1,> 100 µM (inactive),–,> 100 µM (inactive),> 100 µM (inactive),> 100,50.2 µM (inactive),> 100 µM (inactive),–,> 100 µM (inactive),> 100 µM (inactive),> 100 µM (inactive),> 100 µM (inactive),> 100 µM (inactive),> 100 µM (inactive),> 100 µM (inactive),> 100 µM (inactive),> 100 µM (inactive),> 100 µM (inactive),> 100 µM (inactive),> 100 µM (inactive)
COc1cc(OC)c2nc(C)c3c(c2c1)OCC3,> 100 µM (inactive),> 100 µM (inactive),> 100 µM (inactive),> 100 µM (inactive),> 100,> 100 µM (inactive),> 100 µM (inactive),> 100 µM (inactive),> 100 µM (inactive),> 100 µM (inactive),> 100 µM (inactive),> 100 µM (inactive),> 100 µM (inactive),72.9 µM (inactive),> 100 µM (inactive),22.6 µM (inactive),86.7 µM (inactive),> 100 µM (inactive),61.2 µM (inactive),44.8 µM (inactive)
COC(=O)C(Cc1ccc(O)cc1)NC(=O)C(COCc1ccccc1)NC(=O)OCc1ccccc1 (stereo not drawn) (Cbz-Ser(Bn)-Tyr-OMe; configuration not given here),19.4 µM (inactive),71.4 µM (inactive),17.1 µM (inactive),4.06 µM (inactive),18.8,> 100 µM (inactive),15.1 µM (inactive),19.8 µM (inactive),22.2 µM (inactive),19.4 µM (inactive),19.3 µM (inactive),19.1 µM (inactive),20.1 µM (inactive),22.5 µM (inactive),17.7 µM (inactive),18.7 µM (inactive),18.8 µM (inactive),23 µM (inactive),14.9 µM (inactive),17 µM (inactive)
Nc1c2c(=O)[nH]c(=O)c2c(N)c2c(=O)c3ccccc3c(=O)c12,0.897 µM (active),2.93 µM (inactive),0.687 µM (active),4.48 µM (inactive),1.36,2 µM (inactive),0.977 µM (active),1.83 µM (inactive),1.23 µM (inactive),0.243 µM (active),1.16 µM (inactive),0.478 µM (active),1.85 µM (inactive),3.35 µM (inactive),0.684 µM (active),3.57 µM (inactive),2.04 µM (inactive),2.07 µM (inactive),–,1.61 µM (inactive)
CC1(c2nc3ccccc3[nH]2)CCC(CO)C(C)(C)O1 (stereo not drawn),> 100 µM (inactive),> 100 µM (inactive),> 100 µM (inactive),> 100 µM (inactive),> 100,> 100 µM (inactive),> 100 µM (inactive),> 100 µM (inactive),> 100 µM (inactive),> 100 µM (inactive),> 100 µM (inactive),> 100 µM (inactive),> 100 µM (inactive),> 100 µM (inactive),> 100 µM (inactive),> 100 µM (inactive),> 100 µM (inactive),> 100 µM (inactive),> 100 µM (inactive),> 100 µM (inactive)
